A word on the IC50: it is the point on the concentration scale where inhibition reaches its midpoint. As usually defined, the melting point is the temperature of the solid-liquid transition.

These results are taken from patent US6977262B2, “Dihydropyrazolopyridine compounds and pharmaceutical use thereof” (Mitsubishi Pharma Corporation, priority 2001, dated 2005).

Counter-ions that a name gives are not always drawn. Where only a bound is given, the exact number is not on record here.

rabbit GSK-3β, sequence (G1T8E2 1-432): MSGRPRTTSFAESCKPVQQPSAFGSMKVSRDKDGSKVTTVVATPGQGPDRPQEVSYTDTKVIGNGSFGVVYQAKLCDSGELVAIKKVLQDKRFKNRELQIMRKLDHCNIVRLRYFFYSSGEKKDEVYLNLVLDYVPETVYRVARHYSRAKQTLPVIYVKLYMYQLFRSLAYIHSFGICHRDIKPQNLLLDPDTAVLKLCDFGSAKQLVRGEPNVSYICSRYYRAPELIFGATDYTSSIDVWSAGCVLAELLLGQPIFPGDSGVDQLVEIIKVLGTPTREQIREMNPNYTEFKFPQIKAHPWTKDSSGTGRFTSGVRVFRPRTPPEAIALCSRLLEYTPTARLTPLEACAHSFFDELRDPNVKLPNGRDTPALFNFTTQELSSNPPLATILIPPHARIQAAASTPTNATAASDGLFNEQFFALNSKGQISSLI

The first data set addresses rabbit GSK-3β (Oryctolagus cuniculus, UniProt G1T8E2). In words: GSK-3β-inhibitory activity (phosphorylation of CREB phosphopeptide, [γ-32P]ATP, scintillation counting). The data set is classed as biochemical. Conditions: rabbit GSK-3β (0.5 unit), 30° C. for 20 minutes, Table 1. The protocol: CREB phosphopeptide ([…]), rabbit GSK-3β (0.5 unit), ATP ([…]), [γ-^32P]ATP (12.3 kBq) and a test compound were reacted in a GSK-3β buffer solution (25 μL) (20 mmol/L Tris-HCl (pH 7.5), 10 mmol/L magnesium chloride, 5 mmol/L dithiothreitol) containing 1% dimethyl sulfoxide, at 30° C. for 20 minutes. The reaction product (10 μL) was adsorbed on a P81 ion-exchange paper, and the paper was washed with phosphoric acid (100 mmol/L) and measured for cpm on a scintillation counter.
CREB Phosphopeptide is Lys-Arg-Arg-Glu-Ile-Leu-Ser-Arg-Arg-Pro-Ser(P)-Tyr-Arg.
`N#CC1=C(C2CCNCC2)Nc2n[nH]cc2C1c1cccc2nonc12` (stereo not drawn) [Example 1002, 4-(2,1,3-Benzoxadiazol-4-yl)-5-cyano-4,7-dihydro-6-(piperidin-4-yl)-2H-pyrazolo[3,4-b]pyridine] gave an IC50 of 10 nM.
Same read-out and setting: in the case of `CN1CCC(C2=C(C#N)C(c3cccc4nonc34)c3c[nH]nc3N2)CC1` (stereo not drawn) [Example 1003, 4-(2,1,3-Benzoxadiazol-4-yl)-5-cyano-4,7-dihydro-6-(1-methylpiperidin-4-yl)-2H-pyrazolo[3,4-b]pyridine] it was 2.5 nM; in that of `N#CC1=C(C2CCCCN2)Nc2n[nH]cc2C1c1cccc2nonc12` (stereo not drawn) [Example 1008, 4-(2,1,3-Benzoxadiazol-4-yl)-5-cyano-4,7-dihydro-6-(piperidin-2-yl)-2H-pyrazolo[3,4-b]pyridine], 3.7 nM; in that of `CN1CCOC(C2=C(C#N)C(c3cccc4nonc34)c3c[nH]nc3N2)C1` (stereo not drawn) [Example 1011, 4-(2,1,3-Benzoxadiazol-4-yl)-5-cyano-4,7-dihydro-6-(4-methylmorpholin-2-yl)-2H-pyrazolo[3,4-b]pyridine], 14 nM.
The same measure, in the same setting: in the case of `CN(C)C1CCC(C2=C(C#N)C(c3cccc4nonc34)c3c[nH]nc3N2)CC1` (stereo not drawn) [Example 1023, 4-(2,1,3-Benzoxadiazol-4-yl)-5-cyano-4,7-dihydro-6-(4-(N,N-dimethylamino)cyclohexyl)-2H-pyrazolo[3,4-b]pyridine] it was 4.1 nM; in that of `N#CC1=C(C2CCCCC2=O)Nc2n[nH]cc2C1c1cccc2nonc12` (stereo not drawn) [Example 1058, 4-(2,1,3-Benzoxadiazol-4-yl)-5-cyano-4,7-dihydro-6-(2-oxocyclohexan-1-yl)-2H-pyrazolo[3,4-b]pyridine], 1.8 nM.
Consider `CC(=O)CC1=C(C#N)C(c2cccc(C#N)c2Br)c2c[nH]nc2N1` (stereo not drawn) [Example 1063, 6-Acetylmethyl-4-(2-bromo-3-cyanophenyl)-5-cyano-4,7-dihydro-2H-pyrazolo[3,4-b]pyridine], for which the IC50 is 3 nM.
Take `N#CC1=C([C@@H]2C[C@H]3CC[C@@H]2NC3)Nc2n[nH]cc2C1c1cccc(C#N)c1Br` (stereo partly drawn) [Example 1146, 6-(exo-2-Azabicyclo[2,2,2]octan-6-yl)-4-(2-bromo-3-cyanophenyl)-5-cyano-4,7-dihydro-2H-pyrazolo[3,4-b]pyridine 2 Hydrochloride]: the 50% inhibitory concentration (IC50) worked out at 0.61 nM.
On the same count and under the same terms, the value for `CN1C[C@@H]2CC[C@H]1[C@H](C1=C(C#N)C(c3cccc(C#N)c3Br)c3c[nH]nc3N1)C2` (stereo partly drawn) [Example 1148, 4-(2-Bromo-3-cyanophenyl)-5-cyano-4,7-dihydro-6-(exo-2-methyl-2-azabicyclo[2,2,2]octan-6-yl)-2H-pyrazolo[3,4-b]pyridine] was 3.2 nM.
Compound `CNC(C)C1=C(C#N)C(c2cccc(C#N)c2Br)c2c[nH]nc2N1` (stereo not drawn) [Example 1155, 4-(2-Bromo-3-cyanophenyl)-5-cyano-4,7-dihydro-6-(1-(methylamino)ethyl)-2H-pyrazolo[3,4-b]pyridine 2 Hydrochloride] yielded an IC50 of 2.2 nM.
On the same count and under the same terms, in the case of `CCCC1=C(c2nnc(C)o2)C(c2cccc(C#N)c2Br)c2c[nH]nc2N1` (stereo not drawn) [Example 1158, 4-(2-Bromo-3-cyanophenyl)-4,7-dihydro-5-(5-methyl-1,3,4-oxadiazol-2-yl)-6-propyl-2H-pyrazolo[3,4-b]pyridine] it was 0.65 nM.

Test system in another data set: not given
Assay: not given
Conditions: not given
In turn, `N#CC1=C(C2CCNCC2)Nc2n[nH]cc2C1c1cccc2nonc12` (stereo not drawn) [Example 1002, 4-(2,1,3-Benzoxadiazol-4-yl)-5-cyano-4,7-dihydro-6-(piperidin-4-yl)-2H-pyrazolo[3,4-b]pyridine] yielded a melting point of 216 °C.
As to `CS(=O)(=O)N1CCC(C2=C(C#N)C(c3cccc(C#N)c3Br)c3c[nH]nc3N2)CC1` (stereo not drawn) [Example 1053, 4-(2-Bromo-3-cyanophenyl)-5-cyano-4,7-dihydro-6-(1-methanesulfonylpiperidin-4-yl)-2H-pyrazolo[3,4-b]pyridine], the melting point is over 280 °C.
Still for that read-out and setting: in the case of `CC(C)(C)OC(=O)N1CCC(C2=C(C#N)C(c3ccccc3Cl)c3c[nH]nc3N2)CC1` (stereo not drawn) [Example 1054, 6-(1-t-Butoxycarbonylpiperidin-4-yl)-4-(2-chlorophenyl)-5-cyano-4,7-dihydro-2H-pyrazolo[3,4-b]pyridine] it was over 280 °C; in that of `N#CC1=C(C2CCNCC2)Nc2n[nH]cc2C1c1ccccc1Cl` (stereo not drawn) [Example 1055, 4-(2-Chlorophenyl)-5-cyano-4,7-dihydro-6-(piperidin-4-yl)-2H-pyrazolo[3,4-b]pyridine], 221 °C; in that of `CC(=O)CC1=C(C#N)C(c2cccc3nonc23)c2c[nH]nc2N1` (stereo not drawn) [Example 1061, 6-Acetylmethyl-4-(2,1,3-benzoxadiazol-4-yl)-5-cyano-4,7-dihydro-2H-pyrazolo[3,4-b]pyridine], 200 °C.
Same read-out and setting: in the case of `N#CC1=C(C2CCCCC2=O)Nc2n[nH]cc2C1c1cccc(C#N)c1Br` (stereo not drawn) [Example 1062, 4-(2-Bromo-3-cyanophenyl)-5-cyano-4,7-dihydro-6-(2-oxocyclohexan-1-yl)-2H-pyrazolo[3,4-b]pyridine] it was 273 °C; in that of `CC(=O)CC1=C(C#N)C(c2cccc(C#N)c2Br)c2c[nH]nc2N1` (stereo not drawn) [Example 1063, 6-Acetylmethyl-4-(2-bromo-3-cyanophenyl)-5-cyano-4,7-dihydro-2H-pyrazolo[3,4-b]pyridine], 230 °C.
Same read-out and setting: the value for `N#CC1=C(C2CCCN2)Nc2n[nH]cc2C1c1cccc(C#N)c1Br` (stereo not drawn) [Example 1068, 4-(2-Bromo-3-cyanophenyl)-5-cyano-6-(pyrrolidin-2-yl)-4,7-dihydro-2H-pyrazolo[3,4-b]pyridine] was over 240 °C; that for `N#CC1=C(C2CCCN2)Nc2n[nH]cc2C1c1cccc2nonc12` (stereo not drawn) [Example 1070, 4-(2,1,3-Benzoxadiazol-4-yl)-5-cyano-4,7-dihydro-6-(pyrrolidin-2-yl)-2H-pyrazolo[3,4-b]pyridine] was over 240 °C; that for `N#CC1=C(CN2C(=O)c3ccccc3C2=O)Nc2n[nH]cc2C1c1ccccc1Cl` (stereo not drawn) [Example 1079, 4-(2-Chlorophenyl)-5-cyano-4,7-dihydro-6-phthalimidomethyl-2H-pyrazolo[3,4-b]pyridine] was over 250 °C.
In the case of `CC(=O)C1=C(C#N)C(c2ccccc2Cl)c2c[nH]nc2N1` (stereo not drawn) [Example 1080, 6-Acetyl-4-(2-chlorophenyl)-5-cyano-4,7-dihydro-2H-pyrazolo[3,4-b]pyridine], the melting point is 225 to 228 °C (dec.).
On the same count and under the same terms, the value for `CC(=O)C1=C(C#N)C(c2cccc(C#N)c2Br)c2c[nH]nc2N1` (stereo not drawn) [Example 1081, 6-Acetyl-4-(2-bromo-3-cyanophenyl)-5-cyano-4,7-dihydro-2H-pyrazolo[3,4-b]pyridine] was over 230 °C; that for `CC(=O)C1=C(C#N)C(c2cccc3nonc23)c2c[nH]nc2N1` (stereo not drawn) [Example 1082, 6-Acetyl-4-(2,1,3-benzoxadiazol-4-yl)-5-cyano-4,7-dihydro-2H-pyrazolo[3,4-b]pyridine] was 230 °C (dec.); that for `N#CC1=C(C2CC(=O)N(Cc3ccccc3)C2)Nc2n[nH]cc2C1c1ccccc1Cl` (stereo not drawn) [Example 1083, 6-(1-Benzyl-2-oxopyrrolidin-4-yl)-4-(2-chlorophenyl)-5-cyano-4,7-dihydro-2H-pyrazolo[3,4-b]pyridine] was over 230 °C.
On the same count and under the same terms, in the case of `CCCC1=C(c2ccccn2)C(c2cccc(C#N)c2Br)c2c[nH]nc2N1` (stereo not drawn) [Example 1084, 4-(2-Bromo-3-cyanophenyl)-5-(pyridin-2-yl)-4,7-dihydro-6-propyl-2H-pyrazolo[3,4-b]pyridine] it was 205 to 208 °C (dec.); in that of `N#CC1=C(C2CCNC2)Nc2n[nH]cc2C1c1ccccc1Cl` (stereo not drawn) [Example 1086, 4-(2-Chlorophenyl)-5-cyano-4,7-dihydro-6-(pyrrolidin-3-yl)-2H-pyrazolo[3,4-b]pyridine], 210 to 215 °C (dec.).
